pEC50: −log10 of the molar value. Where a name gives a salt, the structure may show the parent alone.
Molecular target: T1, hNPRA (Homo sapiens, UniProt P16066)
T1 construct: expressed in transfected cells
T1 sequence (P16066 33-1061): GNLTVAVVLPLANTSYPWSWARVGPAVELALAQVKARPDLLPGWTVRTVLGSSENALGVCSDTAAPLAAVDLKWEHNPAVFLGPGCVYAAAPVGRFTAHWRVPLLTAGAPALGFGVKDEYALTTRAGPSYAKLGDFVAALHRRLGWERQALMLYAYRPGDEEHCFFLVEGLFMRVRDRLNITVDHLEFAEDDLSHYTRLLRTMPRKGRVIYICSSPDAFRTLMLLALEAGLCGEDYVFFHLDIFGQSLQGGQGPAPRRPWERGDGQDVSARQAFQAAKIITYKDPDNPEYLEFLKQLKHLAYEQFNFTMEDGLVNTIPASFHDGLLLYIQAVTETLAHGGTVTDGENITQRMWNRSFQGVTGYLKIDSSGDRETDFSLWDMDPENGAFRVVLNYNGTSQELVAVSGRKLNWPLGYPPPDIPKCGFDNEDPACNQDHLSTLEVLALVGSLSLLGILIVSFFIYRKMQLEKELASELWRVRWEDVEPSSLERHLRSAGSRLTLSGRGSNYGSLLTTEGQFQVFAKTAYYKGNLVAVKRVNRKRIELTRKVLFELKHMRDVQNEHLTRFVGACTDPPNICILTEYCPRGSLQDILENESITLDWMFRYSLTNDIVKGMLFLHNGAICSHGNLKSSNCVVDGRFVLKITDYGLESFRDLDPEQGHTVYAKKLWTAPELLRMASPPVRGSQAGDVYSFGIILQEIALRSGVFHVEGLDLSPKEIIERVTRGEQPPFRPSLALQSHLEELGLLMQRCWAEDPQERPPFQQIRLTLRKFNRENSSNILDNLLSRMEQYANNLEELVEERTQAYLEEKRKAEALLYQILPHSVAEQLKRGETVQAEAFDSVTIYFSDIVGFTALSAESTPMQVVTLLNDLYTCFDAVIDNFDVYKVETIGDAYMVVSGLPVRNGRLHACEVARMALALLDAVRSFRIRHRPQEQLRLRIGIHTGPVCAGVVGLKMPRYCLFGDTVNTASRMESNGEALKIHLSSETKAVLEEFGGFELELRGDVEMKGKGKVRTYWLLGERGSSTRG
Assay: NPRA Functional Cell Assay (cGMP HTRF, NPRA HEK JumpIn stable cells)
Format: cell-based
Details: cGMP production, 1 hour at 37° C., 10-point dose response
Outline: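 cGMP HTRF read-out after 1 hour compound treatment at 37° C. of human NPRA-expressing HEK JumpIn cells, 1500 cells/well, in buffer with phosphodiesterase inhibitors IBMX and RO20 (100 uM each). Signal converted to [cGMP] by calibration curve; EC50s fitted by 4-parameter logistic; 50 nM h-ANP as positive response.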

| SMILES | pEC50 |
| --- | --- |
| CN1CC(NC(=O)c2cccc([C@@H](CCN3CCC(c4ccc(C(=O)O)cc4)CC3)NC(=O)c3nc4cc5c(nc4s3)CC[C@H](C(C)(C)C)C5)c2)C1 (racemic) [Example 105, 4-[1-[rac-(3R)-3-[3-[(1-methylazetidin-1-ium-3-yl)carbamoyl]phenyl]-3-[rac-(7S)-7-tert-butyl-5,6,7,8-tetrahydrothiazolo [5,4-b]quinoline-2-carbonyl]amino]propyl]-4-piperidyl]benzoic acid; 2,2,2-trifluoroacetate] | 6.50 |
| CC(C)(C)[C@H]1CCc2nc3sc(C(=O)N[C@H](CCN4CCC(O)CC4)c4ccc(-c5ccncc5N)cc4)nc3cc2C1 (racemic) [Example 175, rac-(7S)-7-tert-butyl-N-[rac-(1R)-1-[4-(3-amino-4-pyridyl)phenyl]-3-(4-hydroxy-1-piperidyl)propyl]-5,6,7,8-tetrahydrothiazolo[5,4-b]quinoline-2-carboxamide] | 5.99 |
| CC(C)(C)[C@H]1CCc2nc3sc(C(=O)N[C@H](CCN4CCC(O)CC4)c4cccc(NS(C)(=O)=O)c4)cc3cc2C1 (racemic) [Example 8, ammonium; methylsulfonyl-[3-[rac-(1R)-3-(4-hydroxy-1-piperidyl)-1-[rac-(6S)-6-tert-butyl-5,6,7,8-tetrahydrothieno[2,3-b]quinoline-2-carbonyl]amino]propyl]phenyl] azanide] | 6.34 |
| CC(C)(C)[C@H]1CCc2nc3sc(C(=O)N[C@H](CCN4CCC(O)CC4)c4cccc(N5CCNC5=O)c4)nc3cc2C1 (racemic) [Example 117, rac-(7S)-7-tert-butyl-N-[rac-(1R)-3-(4-hydroxypiperidin-1-ium-1-yl)-1-[3-(2-oxoimidazolidin-1-yl)phenyl]propyl]-5,6,7,8-tetrahydrothiazolo[5,4-b] quinoline-2-carboxamide; 2,2,2-trifluoroacetate] | 6.10 |
| CN1CC(NC(=O)c2cccc([C@@H](CCN3CCC(CO)CC3)NC(=O)c3nc4cc5c(nc4s3)CC[C@H](C(C)(C)C)C5)c2)C1 (racemic) [Example 104, rac-(7S)-7-tert-butyl-N-[rac-(1R)-3-[4-(hydroxymethyl)-1-piperidyl]-1-[3-[(1-methylazetidin-1-ium-3-yl)carbamoyl]phenyl]propyl]-5,6,7,8-tetrahydrothiazolo[5,4-b] quinoline-2-carboxamide; 2,2,2-trifluoroacetate] | 6.73 |
| CC(C)(C)[C@H]1CCc2nc3sc(C(=O)N[C@H](CCN4CCC(O)CC4)c4cccc(C(=O)NC5CCCNC5)c4)nc3cc2C1 (mixture of isomers) [Example 143, rac-(7S)-7-tert-butyl-N-[rac-(1R)-3-(4-hydroxy-1-piperidyl)-1-[3-(3-piperidylcarbamoyl)phenyl]propyl]-5,6,7,8-tetrahydrothiazolo[5,4-b]quinoline-2-carboxamide] | 6.56 |
| CC(C)(C)[C@H]1CCc2nc3sc(C(=O)N[C@H](CCN4CCC(O)CC4)c4ccc(-c5cnc(O)c(C#N)c5)cc4)nc3cc2C1 (racemic) [Example 172, rac-(7S)-7-tert-butyl-N-[rac-(1R)-1-[4-(5-cyano-6-hydroxy-3-pyridyl)phenyl]-3-(4-hydroxypiperidin-1-ium-1-yl)propyl]-5,6,7,8-tetrahydrothiazolo[5,4-b]quinoline-2-carboxamide; 2,2,2-trifluoroacetate] | 6.03 |
| CC(C)(C)[C@H]1CCc2nc3sc(C(=O)N[C@H](CCN4CCCC5(CC5)C4)c4cccc(NS(C)(=O)=O)c4)cc3cc2C1 (racemic) [Example 13, ammonium; methylsulfonyl-[3-[rac-(1R)-3-(5-azaspiro[2.5]octan-5-yl)-1-[[rac-(6S)-6-tert-butyl-5,6,7,8-tetrahydrothieno[2,3-b]quinoline-2-carbonyl]amino]propyl]phenyl] azanide] | 6.09 |
| COCCN1CCN(CC[C@@H](NC(=O)c2cc3cc4c(nc3s2)CC[C@H](C(C)(C)C)C4)c2ccc(-c3ccc(=O)[nH]c3)cc2)CC1 (racemic) [Example 66, rac-(6S)-6-tert-butyl-N-[rac-(1R)-3-[4-(2-methoxyethyl)piperazin-1-yl]-1-[4-(6-oxo-1H-pyridin-3-yl)phenyl]propyl]-5,6,7,8-tetrahydrothieno[2,3-b]quinoline-2-carboxamide] | 5.88 |
| CC(C)(C)[C@H]1CCc2nc3sc(C(=O)N[C@H](CCN4CCC(N)CC4)c4ccc(-c5cnc(O)c(F)c5)cc4)nc3cc2C1 (racemic) [Example 198, [1-[rac-(3R)-3-[4-(5-fluoro-6-hydroxy-3-pyridyl)phenyl]-3-[[rac-(7S)-7-tert-butyl-5,6,7,8-tetrahydrothiazolo[5,4-b]quinoline-2-carbonyl]amino]propyl]-4-piperidyl]ammonium; formate] | 6.66 |
| CC1(O)CN(CC[C@@H](NC(=O)c2cc3cc4c(nc3s2)CC[C@H](C(C)(C)C)C4)c2ccc(-c3ccc(=O)[nH]c3)cc2)C1 (racemic) [Example 65, rac-(6S)-6-tert-butyl-N-[rac-(1R)-3-(3-hydroxy-3-methyl-azetidin-1-ium-1-yl)-1-[4-(6-oxo-1H-pyridin-3-yl)phenyl]propyl]-5,6,7,8-tetrahydrothieno[2,3-b]quinoline-2-carboxamide;formate] | 5.89 |

Continued by rising pEC50, values first:

| pEC50 | SMILES |
| --- | --- |
| 5.70 | CC(C)(C)[C@H]1CCc2nc3sc(C(=O)N[C@H](CCN[C@H]4CCCC(F)(F)[C@@H]4O)c4cccc(NS(C)(=O)=O)c4)cc3cc2C1 (racemic) [Example 24, ammonium; methylsulfony 1-[3-[rac-(1R)-1-[[rac-(6S)-6-tert-buty1-5,6,7,8-tetrahydrothieno[2,3-b]quinoline-2-carbonyl]amino]-3-[[rac-(1S,2R)-3,3-difluoro-2-hydroxy-cyclohexyl]amino]propyl]phenyl]azanide] |
| 5.91 | CN1CC(NCC[C@@H](NC(=O)c2cc3cc4c(nc3s2)CC[C@H](C(C)(C)C)C4)c2ccc(-c3ccc(=O)[nH]c3)cc2)C1 (racemic) [Example 64, (1-methylazetidin-3-yl)-[rac-(3R)-3-[4-(6-oxo-1H-pyridin-3-yl)phenyl]-3-[[rac-(6S)-6-tert-butyl-5,6,7,8-tetrahydrothieno[2,3-b]quinoline-2-carbonyl]amino]propyl] ammonium;formate] |
| 5.92 | COC1CCN(CC[C@@H](NC(=O)c2cc3cc4c(nc3s2)CC[C@H](C(C)(C)C)C4)c2ccc(-c3ccc(=O)[nH]c3)cc2)CC1 (racemic) [Example 63, rac-(6S)-6-tert-butyl-N-[rac-(1R)-3-(4-methoxypiperidin-1-ium-1-yl)-1-[4-(6-oxo-1H-pyridin-3-yl)phenyl]propyl]-5,6,7,8-tetrahydrothieno[2,3-b]quinoline-2-carboxamide;formate] |
| 5.99 | CC(C)(C)[C@H]1CCc2nc3sc(C(=O)N[C@H](CCN4CCC(O)CC4)c4ccc(N5CCOC5=O)cc4)nc3cc2C1 [Example 230, (S)-7-(tert-butyl)-N-((R)-3-(4-hydroxypiperidin-1-yl)-1-(4-(2-oxooxazolidin-3-yl)phenyl)propyl)-5,6,7,8-tetrahydrothiazolo[5,4-b]quinoline-2-carboxamide] |
| 6.12 | CC(C)(C)[C@H]1CCc2nc3sc(C(=O)N[C@H](CCN4CCC(O)CC4)c4ccc(-c5cn[nH]c5)cc4)nc3cc2C1 (racemic) [Example 80, rac-(7S)-7-tert-butyl-N-[rac-(1R)-3-(4-hydroxypiperidin-1-ium-1-yl)-1-[4-(1H-pyrazol-4-yl)phenyl]propyl]-5,6,7,8-tetrahydrothiazolo[5,4-b]quinoline-2-carboxamide; formate] |
| 6.14 | CC(C)(C)[C@H]1CCc2nc3sc(C(=O)N[C@H](CCNC4CCCC4)c4ccc(-c5ccc(=O)[nH]c5)cc4)cc3cc2C1 (racemic) [Example 52, cyclopentyl-[rac-(3R)-3-[4-(6-oxo-1H-pyridin-3-yl)phenyl]-3-[[rac-(6S)-6-tert-butyl-5,6,7,8-tetrahydrothieno[2,3-b]quinoline-2-carbonyl]amino]propyl] ammonium;formate] |
| 6.66 | CN(C)CC[C@@H](NC(=O)c1cc2cc3c(nc2s1)CC[C@H](C(C)(C)C)C3)c1ccc(-c2ccc(=O)[nH]c2)cc1 (racemic) [Example 25, dimethyl-[rac-(3R)-3-[4-(6-oxo-1H-pyridin-3-yl)phenyl]-3-[{rac-(6S)-6-tert-butyl-5,6,7,8-tetrahydrothieno[2,3-b]quinoline-2-carbonyl]amino]propyl] ammonium;formate] |

Source: patent US12440496B2, “Natriuretic peptide receptor a agonists useful for the treatment of cardiometabolic diseases, kidney disease and diabetes” (Merck Sharp & Dohme LLC, priority 2019, dated 2025)
